Results as given in patent publication US10258603B2 (priority 2014, dated 2019).

target: T1, BRD9 (Homo sapiens, UniProt Q9H8M2); assay: BRD9 AlphaLisa Binding Assay
T1 construct: 134-239 was cloned, expressed, and purified to homogeneity; Flag; made in house
T1 sequence (Q9H8M2 134-239 limits assumed): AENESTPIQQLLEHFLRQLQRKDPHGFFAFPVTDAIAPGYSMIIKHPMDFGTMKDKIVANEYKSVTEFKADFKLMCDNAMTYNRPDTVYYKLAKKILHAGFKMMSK
Description: IC50 Measurements for Inhibitors Using BRD9 AlphaLisa Binding Assay His/Flag epitope tagged BRD9134-239 was cloned, expressed, and purified to homogeneity. […] After 20 minutes incubation at room temperature AlphaLisa Streptavidin Acceptor Beads (Perkin-A[…]) and AlphaLisa Nickel donor beads (Perkin AS 10 ID) were added to a final concentration of 15 ug/mL each.

Row | IC50 [nM] | SMILES
1 | 240 | CC(NC(=O)c1cn(C)c(=O)c2[nH]ccc12)c1ccccc1Cl (centres unmarked) [Example 118]
2 | 270 | Cn1cc(C(=O)NC2CCN(C(=O)OC(C)(C)C)C2)c2cc[nH]c2c1=O (centres unmarked) [Example 109]
3 | 790 | Cn1cc(C(=O)NCCN2CCCCC2)c2cc[nH]c2c1=O [Example 5, 6-methyl-7-oxo-N-[2-(1-piperidyl)ethyl]-1H-pyrrolo[2,3-c]pyridine-4-carboxamide]
4 | 850 | Cn1cc(C(=O)NCC2Cc3ccccc3O2)c2cc[nH]c2c1=O (centres unmarked) [Example 110]
5 | 180 | Cn1cc(C(=O)NCc2ccccc2)c2cc[nH]c2c1=O [Example 257]
6 | 240 | Cn1cc(C(=O)NCC2COc3ccccc3O2)c2cc[nH]c2c1=O (centres unmarked) [Example 111]
7 | 7300 | CN(C(=O)c1cn(C)c(=O)c2[nH]ccc12)C1CCN(Cc2ccccc2)C1 (centres unmarked) [Example 22, N-(1-benzylpyrrolidin-3-yl)-N,6-dimethyl-7-oxo-1H-pyrrolo[2,3-c]pyridine-4-carboxamide]
8 | 73 | Cn1cc(C(=O)NCc2cccc3ccccc23)c2cc[nH]c2c1=O [Example 114]
9 | 400 | Cn1cc(C(=O)NCC2CCCN2C(=O)OC(C)(C)C)c2cc[nH]c2c1=O (centres unmarked) [Example 136, tert-butyl 2-[[(6-methyl-7-oxo-1H-pyrrolo[2,3-c]pyridine-4-carbonyl)amino]methyl]pyrrolidine-1-carboxylate]
10 | 200 | Cn1cc(C(=O)NCC2COc3ccccc3C2)c2cc[nH]c2c1=O (centres unmarked) [Example 108]
11 | 980 | Cn1cc(C(=O)NC2CCOC2)c2cc[nH]c2c1=O (centres unmarked) [Example 104]
12 | 990 | CN1CCCC1CCNC(=O)c1cn(C)c(=O)c2[nH]ccc12 (centres unmarked) [Example 7, 6-methyl-N-[2-(1-methylpyrrolidin-2-yl)ethyl]-7-oxo-1H-pyrrolo[2,3-c]pyridine-4-carboxamide]
13 | 3000 | CN(C)CCNC(=O)c1cn(C)c(=O)c2[nH]ccc12 [Example 1, N-(2-dimethylaminoethyl)-6-methyl-7-oxo-1H-pyrrolo[2,3-c]pyridine-4-carboxamide]
14 | 310 | Cn1cc(C(=O)NC2CCCN(C(=O)OC(C)(C)C)C2)c2cc[nH]c2c1=O (centres unmarked) [Example 138]
15 | 11000 | Cn1cc(C(=O)NC(C)(C)CN2CCOCC2)c2cc[nH]c2c1=O [Example 35, N-(1,1-dimethyl-2-morpholino-ethyl)-6-methyl-7-oxo-1H-pyrrolo[2,3-c]pyridine-4-carboxamide]
16 | 3500 | CN1CCC(CNC(=O)c2cn(C)c(=O)c3[nH]ccc23)CC1 [Example 3, 6-methyl-N-[(1-methyl-4-piperidyl)methyl]-7-oxo-1H-pyrrolo[2,3-c]pyridine-4-carboxamide]
17 | 2200 | Cc1cc(CC(C)NC(=O)c2cn(C)c(=O)c3[nH]ccc23)on1 (centres unmarked) [Example 122]
18 | 4100 | Cn1cc(C(=O)N2CCC(c3ccccc3)C2)c2cc[nH]c2c1=O (centres unmarked) [Example 89]
19 | 1000 | CN(Cc1ccccc1)C(=O)c1cn(C)c(=O)c2[nH]ccc12 [Example 87]
20 | 5400 | CC=CCn1cc(C(=O)NCC2CCN(C)CC2)c2cc[nH]c2c1=O [Example 11, 6-but-2-enyl-N-[(1-methyl-4-piperidyl)methyl]-7-oxo-1H-pyrrolo[2,3-c]pyridine-4-carboxamide]
21 | 2200 | CN1CCN(CCCNC(=O)c2cn(C)c(=O)c3[nH]ccc23)CC1 [Example 34, 6-methyl-N-[3-(4-methylpiperazin-1-yl)propyl]-7-oxo-1H-pyrrolo[2,3-c]pyridine-4-carboxamide]
22 | 15000 | CC(C)N1CCC(CN(C)C(=O)c2cn(C)c(=O)c3[nH]ccc23)CC1 [Example 190]
23 | 440 | C[C@H](NC(=O)c1cn(C)c(=O)c2[nH]ccc12)c1ccccc1 [Example 264]
24 | 200 | Cn1cc(C(=O)NC(c2ccccc2)c2ccccc2)c2cc[nH]c2c1=O [Example 91]
25 | 570 | Cn1cc(C(=O)N2CCCC2c2ccccc2)c2cc[nH]c2c1=O (centres unmarked) [Example 85]
26 | 480 | Cn1cc(C(=O)NCc2ccc(F)cc2)c2cc[nH]c2c1=O [Example 263]
